ChEMBL document CHEMBL4706648, “Antitubercular 2-Pyrazolylpyrimidinones: Structure-Activity Relationship and Mode-of-Action Studies” (J Med Chem, 2021)
≈ marks a conversion by molar mass, not a printed value. Calls of active or inactive are those of the source. The calls are words filed in the database; no cut-off is given here.

Assays:
[1] = tested on: Mycobacterium tuberculosis; format: functional; conditions: H37Rv, 168 h, time 7 day
CHO = experiment: Cytotoxicity against CHO cells assessed as reduction in cell viability by MTT assay; format: cell-based; conditions: Cricetulus griseus
[2] = Aqueous solubility of compound at pH 7.4; format: physicochemical
[3] = tested on: Mycobacterium tuberculosis; experiment: Antimycobacterial activity against mmpL3 gene silenced Mycobacterium tuberculosis H37Rv assessed as inhibition of bacterial growth grown under middlebrook 7H9 medium incubated for 7 days by alamar blue broth microdilution method; format: functional, organism-based; conditions: time 7.0 day
[4] = tested on: Mycobacterium tuberculosis; format: functional; conditions: H37Rv, 168 h, time 7 day; remark: listed apart in the source
[5] = tested on: Mycobacterium tuberculosis; format: functional; conditions: H37Rv, 168 h, time 7 day; remark: listed apart in the source
[6] = tested on: Mycobacterium tuberculosis; experiment: Antimycobacterial activity against wild-type Mycobacterium tuberculosis H37Rv assessed as inhibition of bacterial growth grown under middlebrook 7H9 medium incubated for 7 days by alamar blue broth microdilution method; format: functional; conditions: 168 h, time 7 day
[7] = tested on: Mycobacterium tuberculosis; format: functional; conditions: H37Rv, 168 h, time 7 day; remark: listed apart in the source
[8] = Metabolic stability in mouse liver microsomes assessed as parent compound remaining at 1 uM in presence of NADPH by LC-MS/MS analysis; format: ADME, Microsome
[9] = Metabolic stability in human liver microsomes assessed as parent compound remaining at 1 uM in presence of NADPH by LC-MS/MS analysis; format: ADME, Microsome
Vero = experiment: Cytotoxicity against African green monkey Vero cells assessed as reduction in cell viability by MTT assay; format: cell-based; conditions: Chlorocebus sabaeus
[10] = tested on: Mycobacterium tuberculosis; format: functional; conditions: H37Rv, 168 h, time 7 day; remark: listed apart in the source
[11] = Lipophilicity, log D of the compound in n-octanol and phosphate buffer at pH 7.4 measured after 3 hrs by HPLC-DAD analysis; format: physicochemical
[12] = Metabolic stability in rat liver microsomes assessed as parent compound remaining at 1 uM in presence of NADPH by LC-MS/MS analysis; format: ADME, Microsome

Question: Which results are given for `Cc1nc(C)n(-c2nc(-c3ccccc3)cc(=O)[nH]2)n1`?
Answer: MIC [1]: > 125 µM; IC50 (CHO): > 50 µM; solubility ([2]; buffer): 130 µM (≈ 34.7 µg/mL)

Question: Which Activity [3] does the source give for `Cc1ccc(Nc2cc(C)nn2-c2nc(C)cc(O)n2)cc1` here?
Answer: Active

Question: And the MIC [4]?
Answer: 0.4 µM (≈ 0.118 µg/mL)

Question: What about the MIC [1] of the same compound?
Answer: 2 µM (≈ 0.591 µg/mL)

Question: And the MIC [5]?
Answer: 0.02 µM (≈ 0.00591 µg/mL)

Question: What about the MIC [6] of the same compound?
Answer: 4.8 µM (≈ 1.42 µg/mL)

Question: And the MIC [7]?
Answer: 0.2 µM (≈ 0.0591 µg/mL)

Question: What about the Stabilty [8] of the same compound?
Answer: 78%

Question: What about the solubility ([2]; aqueous, read-out: solubility) of the same compound?
Answer: < 5 µM

Question: And the Stabilty [9]?
Answer: 73%

Question: And the IC50 (Vero)?
Answer: 1.2 µM

Question: What about the MIC [10] of the same compound?
Answer: 6 µM (≈ 1.77 µg/mL)

Question: And the logD at 3 h [11]?
Answer: 2.2

Question: And the Stabilty [12]?
Answer: 76%

Question: For `Cc1cc(Nc2ccc(C#N)cc2)n(-c2nc(C(F)(F)F)cc(=O)[nH]2)n1`, which MIC [1] is on record?
Answer: 9.4 µM (≈ 3.39 µg/mL)

Question: What about the IC50 (CHO) of the same compound?
Answer: 20 µM

Question: And the solubility ([2]; buffer)?
Answer: 75 µM (≈ 27 µg/mL)

Question: Which MIC [1] does the source give for `Cc1cc(=O)n(-c2nc(-c3ccccc3)cc(=O)[nH]2)[nH]1` here?
Answer: > 125 µM

Question: What about the solubility ([2]; aqueous, read-out: solubility) of the same compound?
Answer: 190 µM (≈ 51 µg/mL)

Question: With `Cc1cc(NCCN(C)C)n(-c2nc(C(F)(F)F)cc(=O)[nH]2)n1` as the compound, how does the MIC [1] read?
Answer: 58 µM (≈ 19.2 µg/mL)

Question: And the solubility ([2]; aqueous, read-out: solubility)?
Answer: 200 µM (≈ 66.1 µg/mL)

Question: Which MIC [1] does the source give for `Cc1cc(C)n(-c2cc(-c3ccccc3)cc(=O)n2C)n1` here?
Answer: > 50 µM

Question: What about the IC50 (CHO) of the same compound?
Answer: > 50 µM

Question: What about the solubility ([2]; aqueous, read-out: solubility) of the same compound?
Answer: 185 µM (≈ 51.7 µg/mL)

Question: What does the source list for `Cc1cc(C)n(-c2nc(-c3ccncc3)cc(=O)[nH]2)n1`?
Answer: MIC [1]: 9 µM (≈ 2.41 µg/mL); IC50 (CHO): > 50 µM; solubility ([2]; buffer): 180 µM (≈ 48.1 µg/mL)

Question: With `CCNc1cc(C)nn1-c1nc(C(F)(F)F)cc(=O)[nH]1` as the compound, how does the MIC [1] read?
Answer: 6.25 µM (≈ 1.8 µg/mL)

Question: And the IC50 (CHO)?
Answer: 8 µM

Question: And the solubility ([2]; buffer)?
Answer: 85 µM (≈ 24.4 µg/mL)

Question: With `Cc1cc(C)n(-c2nc(-c3ccc(F)cc3)cc(=O)[nH]2)n1` as the compound, how does the MIC [1] read?
Answer: 1.2 µM (≈ 0.341 µg/mL)

Question: And the IC50 (CHO)?
Answer: 4 µM

Question: And the solubility ([2]; buffer)?
Answer: 35 µM (≈ 9.95 µg/mL)

Question: With `Cc1cc(O)nc(-n2nc(C)cc2C)n1` as the compound, how does the MIC [1] read?
Answer: 30 µM (≈ 6.13 µg/mL)

Question: And the solubility ([2]; buffer)?
Answer: 180 µM (≈ 36.8 µg/mL)

Question: And the IC50 (Vero)?
Answer: 325 µM

Question: Which MIC [1] does the source give for `Cc1cc(-c2ccccc2)n(-c2nc(C(F)(F)F)cc(=O)[nH]2)n1` here?
Answer: 25 µM (≈ 8.01 µg/mL)

Question: And the IC50 (CHO)?
Answer: > 50 µM

Question: What about the solubility ([2]; aqueous, read-out: solubility) of the same compound?
Answer: 200 µM (≈ 64.1 µg/mL)

Question: Which results are given for `Cc1cc(C)n(-c2cc(=O)cc(-c3ccccc3)[nH]2)n1`?
Answer: MIC [1]: > 50 µM; IC50 (CHO): > 50 µM; solubility ([2]; buffer): 120 µM (≈ 31.8 µg/mL)

Question: What does the source list for `Cc1cc(N)n(-c2nc(-c3ccccc3)cc(=O)[nH]2)n1`?
Answer: solubility ([2]; buffer): 180 µM (≈ 48.1 µg/mL); IC50 (Vero): 9 µM

Question: Which MIC [1] does the source give for `Cc1cc(C)n(-c2nc(-c3ccc(NS(C)(=O)=O)cc3)cc(=O)[nH]2)n1` here?
Answer: > 125 µM

Question: And the IC50 (CHO)?
Answer: > 50 µM

Question: And the solubility ([2]; buffer)?
Answer: 20 µM (≈ 7.19 µg/mL)

Question: What does the source list for `CCOc1cc(C)nn1-c1nc(C(F)(F)F)cc(=O)[nH]1`?
Answer: MIC [1]: 25 µM (≈ 7.21 µg/mL); IC50 (CHO): > 50 µM; solubility ([2]; buffer): 120 µM (≈ 34.6 µg/mL)

Question: For `O=c1cc(-c2ccccc2)nc(-n2cccn2)[nH]1`, which MIC [1] is on record?
Answer: 50 µM (≈ 11.9 µg/mL)

Question: What about the IC50 (CHO) of the same compound?
Answer: > 50 µM

Question: What about the solubility ([2]; buffer) of the same compound?
Answer: 190 µM (≈ 45.3 µg/mL)

Question: Which MIC [1] does the source give for `Cc1cc(Nc2ccc(F)cc2F)n(-c2nc(C(F)(F)F)cc(=O)[nH]2)n1` here?
Answer: 0.3 µM (≈ 0.111 µg/mL)

Question: And the IC50 (CHO)?
Answer: 8 µM

Question: What about the solubility ([2]; aqueous, read-out: solubility) of the same compound?
Answer: < 5 µM

Question: With `Cc1cc(N)n(-c2nc(C(F)(F)F)cc(=O)[nH]2)n1` as the compound, how does the MIC [1] read?
Answer: 20 µM (≈ 5.18 µg/mL)

Question: What about the IC50 (CHO) of the same compound?
Answer: 120 µM

Question: What about the solubility ([2]; aqueous, read-out: solubility) of the same compound?
Answer: 200 µM (≈ 51.8 µg/mL)

Question: Which MIC [1] does the source give for `Cc1cc(C)n(-c2nc(C)c(-c3ccccc3)c(=O)[nH]2)n1` here?
Answer: 9 µM (≈ 2.52 µg/mL)

Question: And the IC50 (CHO)?
Answer: 9 µM

Question: And the solubility ([2]; buffer)?
Answer: 190 µM (≈ 53.3 µg/mL)

Question: With `Cc1cc(C)n(-c2nc(C(=O)Nc3ccc(F)cc3)cc(=O)[nH]2)n1` as the compound, how does the MIC [1] read?
Answer: 25 µM (≈ 8.18 µg/mL)

Question: What about the IC50 (CHO) of the same compound?
Answer: > 50 µM

Question: What about the solubility ([2]; aqueous, read-out: solubility) of the same compound?
Answer: 200 µM (≈ 65.5 µg/mL)

Question: For `Cc1cc(C)n(-c2nc(-c3cccnc3)cc(=O)[nH]2)n1`, which MIC [1] is on record?
Answer: 50 µM (≈ 13.4 µg/mL)

Question: And the IC50 (CHO)?
Answer: > 50 µM

Question: What about the solubility ([2]; aqueous, read-out: solubility) of the same compound?
Answer: 200 µM (≈ 53.5 µg/mL)

Question: With `Cc1cc(Nc2ccncc2)n(-c2nc(C(F)(F)F)cc(=O)[nH]2)n1` as the compound, how does the MIC [1] read?
Answer: > 50 µM

Question: And the solubility ([2]; buffer)?
Answer: 20 µM (≈ 6.73 µg/mL)

Question: With `Cc1cc(Nc2ccc(C(=O)N(C)C)cc2)n(-c2nc(C(F)(F)F)cc(=O)[nH]2)n1` as the compound, how does the MIC [1] read?
Answer: > 50 µM

Question: And the solubility ([2]; aqueous, read-out: solubility)?
Answer: 200 µM (≈ 81.3 µg/mL)

Question: For `Cc1cc(Nc2ccc(N3CCOCC3)cn2)n(-c2nc(C(F)(F)F)cc(=O)[nH]2)n1`, which MIC [1] is on record?
Answer: 2.3 µM (≈ 0.969 µg/mL)

Question: What about the IC50 (CHO) of the same compound?
Answer: 1.3 µM

Question: What about the solubility ([2]; buffer) of the same compound?
Answer: 180 µM (≈ 75.8 µg/mL)

Question: Which MIC [1] does the source give for `Cc1cc(C)n(-c2nc3ccccc3c(=O)[nH]2)n1` here?
Answer: 3 µM (≈ 0.721 µg/mL)

Question: And the IC50 (CHO)?
Answer: 6 µM

Question: What about the solubility ([2]; buffer) of the same compound?
Answer: 150 µM (≈ 36 µg/mL)
